In brackets after ≈: the same amount, converted by molar mass.

Holding throughout (assay type): cell-based
One assay concerns H. influenzae. Briefly: MIC by agar plate dilution against clinical isolates of H. influenzae. The settings on record: 4 strains of H. influenzae (clinical isolates), 18 to 24 hr, 35° C; for MIC: Haemophilus influenzae, read-out: MIC or MIC range, H. Influenzae. The protocol:
(§1) Minimal Inhibitory concentrations (MIC) of inhibitors against clinical isolates of S. pneumoniae, H. influenzae and M. catarrhalis obtained from the Public Health and Clinical Microbiology Laboratory, Addenbrooke's Hospital, Hills Road, Cambridge CB2 2QW, UK, were determined by a standard agar plate dilution method following recommended in British Society for Antimicrobial Chemotherapy Working Party. 1991. “A guide to sensitivity testing British Society for Antimicrobial Chemotherapy, London, United Kingdom”. Briefly Iso-Sensitest agar (pH 7.2: Oxoid, United Kingdom) was employed supplemented with 5% horse blood (Oxoid) and 20 μg of NAD (Sigma) per ml to support growth of fastidious bacteria. The inoculum used was approximately 10^4 colony forming units of each isolate contained in a volume of 1 μl. Plates were incubated 18 to 24 hr in air, or for fastidious bacteria an atmosphere enriched with 4–6% carbon dioxide at 35° C. The MIC was determined as the lowest concentration of an antimicrobial tested that inhibited growth of the inoculum, disregarding a single persisting colony or faint haze caused by the inoculation.
(§2) The compounds of the Examples were are antibacterially active in the above assays, The following table states the MICs or MIC ranges of the tested compounds against 6 strains of S. pneumoniae, 4 strains of H. influenzae and 3 strains of M. catarrhalis.

The next assay relates to M. catarrhalis. Briefly: MIC by agar plate dilution against clinical isolates of M. catarrhalis. As to conditions: 3 strains of M. catarrhalis (clinical isolates), 18 to 24 hr, 35° C; for MIC: Moraxella catarrhalis, read-out: MIC or MIC range, M. catarrhalis. The protocol: as §1, §2
For a further assay, the system named is S. pneumoniae. Briefly: MIC by agar plate dilution against clinical isolates of S. pneumoniae. The settings on record: 6 strains of S. pneumoniae (clinical isolates), 18 to 24 hr, 35° C; for MIC: Streptococcus pneumoniae, read-out: MIC or MIC range, S. pneumoniae. How it is done: as §1, §2

For the compound `COCC(=O)N1CCCCN1C(=O)[C@H](CC1CCCC1)CN(O)C=O` [Example 2, N-{(2R)-Cyclopentylmethyl-3-[2-(2-methoxyacetyl)tetrahydropyridazin-1-yl]-3-oxo-propyl}-N-hydroxyformamide], the MIC in the assay with H. influenzae is 0.25 to 8 µg/mL (≈ 0.703 to 22.5 µM); in the assay with M. catarrhalis, 0.25 µg/mL (≈ 0.703 µM); in the assay with S. pneumoniae, 1 to 8 µg/mL (≈ 2.81 to 22.5 µM).
`O=CN(O)C[C@@H](CC1CCCC1)C(=O)N1CCCCN1C(=O)c1ccccc1` [Example 3, N-{(2R)-Cyclopentylmethyl-3-[2-benzoyl-tetrahydropyridazin-1-yl]-3-oxo-propyl}-N-hydroxyformamide]: the MIC in the assay on H. influenzae is 1 to 4 µg/mL (≈ 2.58 to 10.3 µM); with M. catarrhalis, 0.125 µg/mL (≈ 0.323 µM); with S. pneumoniae it was 0.5 to 2 µg/mL (≈ 1.29 to 5.16 µM).
On to `O=CN(O)C[C@@H](CC1CCCC1)C(=O)N1CCCCN1C(=O)c1ccc(C(F)(F)F)cc1` [Example 4, N-{(2R)-Cyclopentylmethyl-3-[2-(4-trifluoromethylbenzoyl)-tetrahydropyridazin-1-yl]-3-oxo-propyl}-N-hydroxyformamide], for which the MIC in the assay on M. catarrhalis is 0.5 µg/mL (≈ 1.1 µM); in the assay with S. pneumoniae, 0.5 to 4 µg/mL (≈ 1.1 to 8.78 µM).
For `O=CN(O)C[C@@H](CC1CCCC1)C(=O)N1CCCCN1C(=O)c1ccncc1` [Example 5, N-{(2R)-Cyclopentylmethyl-3-[2-(pyridine-4-Carbonyl)-tetrahydropyridazin-1-yl]-3-oxo-propyl}-N-hydroxyformamide], the results for the MIC in the assay with M. catarrhalis and in the assay with S. pneumoniae were 0.25 µg/mL (≈ 0.644 µM) and 2 to 16 µg/mL (≈ 5.15 to 41.2 µM), respectively.
Consider `O=CN(O)C[C@@H](CC1CCCC1)C(=O)N1CCCCN1C(=O)C1CCCCC1` [Example 6, N-{(2R)-Cyclopentylmethyl-3-[2-Cyclohexanecarbonyl-tetrahydropyridazin-1-yl]-3-oxo-propyl}-N-hydroxyformamide], for which the MIC in the assay with H. influenzae is 4 to 8 µg/mL (≈ 10.2 to 20.3 µM); with M. catarrhalis it was 0.06 µg/mL (≈ 0.152 µM); in the assay on S. pneumoniae it was 0.5 to 2 µg/mL (≈ 1.27 to 5.08 µM).
Take `COc1ccc(C(=O)N2CCCCN2C(=O)[C@H](CC2CCCC2)CN(O)C=O)cc1` [Example 7, N-{(2R)-Cyclopentylmethyl-3-[2-(4-methoxybenzoyl)-tetrahydropyridazin-1-yl]-3-oxo-propyl}-N-hydroxyformamide]: the MIC in the assay with M. catarrhalis was 0.5 µg/mL (≈ 1.2 µM); with S. pneumoniae, 0.5 to 4 µg/mL (≈ 1.2 to 9.58 µM).
As to `O=CN(O)C[C@@H](CC1CCCC1)C(=O)N1CCCCN1C(=O)c1ccc2c(c1)OCO2` [Example 8, N-{(2R)-Cyclopentylmethyl-3-[2-(benzo[1,3]dioxole-5carbonyl)-tetrahydropyridazin-1-yl]-3-oxo-propyl}-N-hydroxyformamide], the MIC in the assay with H. influenzae is 1 to 8 µg/mL (≈ 2.32 to 18.5 µM); with M. catarrhalis it was 0.5 µg/mL (≈ 1.16 µM); in the assay with S. pneumoniae, 0.5 to 4 µg/mL (≈ 1.16 to 9.27 µM).
With `O=CN(O)C[C@@H](CC1CCCC1)C(=O)N1CCCCN1C(=O)c1ccoc1` [Example 9, N-{(2R)-Cyclopentylmethyl-3-[2-(furan-3-Carbonyl)-tetrahydropyridazin-1-yl]-3-oxo-propyl}-N-hydroxyformamide], the MIC in the assay with H. influenzae was 0.125 to 8 µg/mL (≈ 0.331 to 21.2 µM); with M. catarrhalis, less than 0.93 µg/mL; with S. pneumoniae, 0.5 to 2 µg/mL (≈ 1.32 to 5.3 µM).
For `O=CN(O)C[C@@H](CC1CCCC1)C(=O)N1CCCCN1C(=O)c1ccc(F)cc1` [Example 10, N-{(2R)-Cyclopentylmethyl-3-[2-(4-fluorobenzoyl)-tetrahydropyridazin-1-yl]-3-oxo-propyl}-N-hydroxyformamide], the MIC in the assay with H. influenzae is 0.5 to 2 µg/mL (≈ 1.23 to 4.93 µM); with M. catarrhalis, 0.5 µg/mL (≈ 1.23 µM); in the assay on S. pneumoniae, 0.5 to 4 µg/mL (≈ 1.23 to 9.87 µM).
Regarding `O=CN(O)C[C@@H](CC1CCCC1)C(=O)N1CCCCN1C(=O)Cc1ccccc1` [Example 11, N-{(2R)-Cyclopentylmethyl-3-[2-phenylacetyl-tetrahydropyridazin-1-yl]-3-oxo-propyl}-N-hydroxyformamide], the MIC in the assay with H. influenzae was 0.25 to 2 µg/mL (≈ 0.623 to 4.98 µM); in the assay on M. catarrhalis it was 0.25 µg/mL (≈ 0.623 µM); in the assay with S. pneumoniae, 0.5 to 4 µg/mL (≈ 1.25 to 9.96 µM).
Turning to `O=CN(O)C[C@@H](CC1CCCC1)C(=O)N1CCCCN1C(=O)c1ccc(N2CCOCC2)nc1` [Example 12, N-{(2R)-Cyclopentylmethyl-3-[2-(6-morpholin-4-yl-pyridine-3-Carbonyl)-tetrahydropyridazin-1-yl]-3-oxo-propyl}N-hydroxyformamide], the MIC was 16 to 32 µg/mL (≈ 33.8 to 67.6 µM) in the assay with H. influenzae, 1 µg/mL (≈ 2.11 µM) in the assay with M. catarrhalis and 2 to 16 µg/mL (≈ 4.22 to 33.8 µM) with S. pneumoniae.
For `O=CN(O)C[C@@H](CC1CCCC1)C(=O)N1CCCCN1C(=O)Nc1cc(C(F)(F)F)cc(C(F)(F)F)c1` [Example 13, 2-[(2R)-Cyclopentylmethyl-3-(formylhydroxyamino)-propionyl]-tetrahydropyridazine-1-Carboxylic acid (3,5-bis-(trifluoromethyl)phenyl)amide], in the assay on M. catarrhalis, the “MIC or MIC range, M. catarrhalis” value amounted to 2 µg/mL (≈ 3.71 µM). Also, the “MIC or MIC range, S. pneumoniae” value in the assay on S. pneumoniae was 8 to 16 µg/mL.
`O=CN(O)C[C@@H](CC1CCCC1)C(=O)N1CCCCN1C(=O)Nc1ccccc1` [Example 14, 2-[(2R)-Cyclopentylmethyl-3-(formylhydroxyamino)-propionyl]-tetrahydropyridazine-1-Carboxylic acid phenylamide]: the MIC is 0.125 to 4 µg/mL (≈ 0.311 to 9.94 µM) in the assay with H. influenzae, less than 0.125 µg/mL in the assay with M. catarrhalis and 2 to 4 µg/mL (≈ 4.97 to 9.94 µM) in the assay with S. pneumoniae.
`COc1cccc(NC(=O)N2CCCCN2C(=O)[C@H](CC2CCCC2)CN(O)C=O)c1` [Example 15, 2-[(2R)-Cyclopentylmethyl-3-(formylhydroxyamino)-propionyl]-tetrahydropyridazine-1-Carboxylic acid (3-methoxyphenyl)amide]: the MIC is 0.125 to 4 µg/mL (≈ 0.289 to 9.25 µM) in the assay on H. influenzae, less than 0.125 µg/mL in the assay on M. catarrhalis and 2 to 4 µg/mL (≈ 4.62 to 9.25 µM) with S. pneumoniae.
On the same counts, the results for `O=CN(O)C[C@@H](CC1CCCC1)C(=O)N1CCCCN1C(=O)Nc1ccc(F)cc1` [Example 16, 2-[(2R)-Cyclopentylmethyl-3-(formylhydroxyamino)propionyl]-tetrahydropyridazine-1-Carboxylic acid (4-fluorophenyl)amide] are 0.125 to 4 µg/mL (≈ 0.297 to 9.51 µM), less than 0.125 µg/mL and 4 to 8 µg/mL (≈ 9.51 to 19 µM).
For the compound `O=CN(O)C[C@@H](CC1CCCC1)C(=O)N1CCCCN1C(=O)Nc1ccc(F)cc1F` [Example 17, 2-[(2R)-Cyclopentylmethyl-3-(formylhydroxyamino)-propionyl]-tetrahydropyridazine-1-Carboxylic acid (2,4-bis(fluoro)phenyl)amide], the MIC in the assay with H. influenzae is 0.125 µg/mL (≈ 0.285 µM); with M. catarrhalis it was less than 0.125 µg/mL; with S. pneumoniae, 4 to 8 µg/mL (≈ 9.12 to 18.2 µM).
Take `O=CN(O)C[C@@H](CC1CCCC1)C(=O)N1CCCCN1C(=O)Nc1ccc(C(F)(F)F)cc1` [Example 18, 2-[(2R)-Cyclopentylmethyl-3-(formylhydroxyamino)-propionyl]-tetrahydropyridazine-1-Carboxylic acid (4-trifluoromethylphenyl)amide]: the figures for the MIC in the assay on H. influenzae, with M. catarrhalis and in the assay with S. pneumoniae were 0.25 to 16 µg/mL (≈ 0.531 to 34 µM), less than 0.125 µg/mL and 4 µg/mL (≈ 8.5 µM), respectively.
`O=CN(O)C[C@@H](CC1CCCC1)C(=O)N1CCCCN1C(=O)N1CCC(Cc2ccccc2)CC1` [Example 22, N-{(2R)-Cyclopentylmethyl-3-[2-(4-benzylpiperidine-1-Carbonyl)-tetrahydropyridazin-1-yl]-3-oxo-propyl}-N-hydroxyformamide]: the MIC in the assay on M. catarrhalis was 2 µg/mL (≈ 4.13 µM); with S. pneumoniae, 4 to 16 µg/mL (≈ 8.25 to 33 µM).
As for `O=CN(O)C[C@@H](CC1CCCC1)C(=O)N1CCCN1C(=O)c1ccncc1` [Example 30, N-{(2R)-Cyclopentylmethyl-3-[2-(pyridine-4-Carbonyl)-pyrazolidin-1-yl]-3-oxo-propyl}-N-hydroxyformamide], the MIC is 0.125 µg/mL (≈ 0.334 µM) in the assay with M. catarrhalis and 16 to 32 µg/mL (≈ 42.7 to 85.5 µM) in the assay on S. pneumoniae.
Taken in the same sequence, the figures for `O=CN(O)C[C@@H](CC1CCCC1)C(=O)N1CCCN1C(=O)c1ccoc1` [Example 37, N-{(2R)-Cyclopentylmethyl-3-[2-(furan-3-Carbonyl)-pyrazolidin-1-yl]-3-oxo-propyl}-N-hydroxyformamide] were 0.06 µg/mL (≈ 0.165 µM) and 4 µg/mL (≈ 11 µM).
Take `O=CN(O)C[C@@H](CC1CCCC1)C(=O)N1CCCN1C(=O)Nc1ccc(C(F)(F)F)cc1` [Example 42, 2-[(2R)-Cyclopentylmethyl-3-(formylhydroxyamino)-propionyl]-pyrazolidine-1-Carboxylic acid (4-trifluoromethylphenyl)amide]: the MIC in the assay on H. influenzae and in the assay with S. pneumoniae was 2 to 8 µg/mL (≈ 4.38 to 17.5 µM) throughout.
Regarding `CN(C(=O)N1CCCN1C(=O)[C@H](CC1CCCC1)CN(O)C=O)c1ccccc1` [Example 43, 2-[(2R)-Cyclopentylmethyl-3-(formylhydroxyamino)-propionyl]-pyrazolidine-1-Carboxylic acid methylphenylamide], the “MIC or MIC range, H. Influenzae” value against H. influenzae is 16 to 32 µg/mL. Moreover, the “MIC or MIC range, M. catarrhalis” value against M. catarrhalis came to 8 µg/mL (≈ 19.9 µM).
For `O=C(C[C@@H](CC1CCCC1)C(=O)N1CCCCN1C(=O)Nc1ccccc1)NO` [Example 45, 2-[(2R)-Cyclopentylmethyl-3-hydroxycarbamoylpropionyl]-tetrahydropyridazine-1-Carboxylic acid phenylamide], the “MIC or MIC range, H. Influenzae” value with H. influenzae was 1 to 4 µg/mL. Further, the “MIC or MIC range, S. pneumoniae” value against S. pneumoniae fell in the range of 4 to 8 µg/mL.
